Laboratory results published in PubChem BioAssay AID2060486 (Molecular Pharmacology Branch, DTP, NCI, 2025).

Test system: IGROV1 complex spheroids (HUVEC, MSC), viability % test/control
Test: Anticancer human tumor IGROV1 cell line growth inhibition [GQUAD];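 note: spheroids exposed to compounds for 7 days before readout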;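 for viability, T/C: 100% = DMSO vehicle control viability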
Conditions: for IC50: curve of first compound; for viability, T/C: stronger effect = lower value
How it was run: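 Viability of tumor cells grown as complex spheroids with endothelial and stromal cells, exposed to drug combinations. Top concentration at or near clinical Cmax (else 10 microM), diluted in half-log increments.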

[1] = second compound 0.0316 µM, first compound 0.0316 µM
[2] = second compound 0.0316 µM, first compound 0.1 µM
[3] = second compound 0.0316 µM, first compound 0.316 µM
[4] = second compound 0.0316 µM, first compound 1 µM
[5] = second compound 0.0316 µM, first compound 3.16 µM
[6] = second compound 0.0316 µM, first compound 10 µM
[7] = second compound 0.1 µM, first compound 0.0316 µM
[8] = second compound 0.1 µM, first compound 0.1 µM
[9] = second compound 0.1 µM, first compound 0.316 µM
[10] = second compound 0.1 µM, first compound 1 µM
[11] = second compound 0.1 µM, first compound 3.16 µM
[12] = second compound 0.1 µM, first compound 10 µM
[13] = second compound 0.316 µM, first compound 0.0316 µM
[14] = second compound 0.316 µM, first compound 0.1 µM
[15] = second compound 0.316 µM, first compound 0.316 µM
[16] = second compound 0.316 µM, first compound 1 µM
[17] = second compound 0.316 µM, first compound 3.16 µM
[18] = second compound 0.316 µM, first compound 10 µM
[19] = second compound 1 µM, first compound 0.0316 µM
[20] = second compound 1 µM, first compound 0.1 µM
[21] = second compound 1 µM, first compound 0.316 µM
[22] = second compound 1 µM, first compound 1 µM
[23] = second compound 1 µM, first compound 3.16 µM
[24] = second compound 1 µM, first compound 10 µM
[25] = second compound 3.16 µM, first compound 0.0316 µM
[26] = second compound 3.16 µM, first compound 0.1 µM
[27] = second compound 3.16 µM, first compound 0.316 µM
[28] = second compound 3.16 µM, first compound 1 µM
[29] = second compound 3.16 µM, first compound 3.16 µM
[30] = second compound 3.16 µM, first compound 10 µM
[31] = second compound 10 µM, first compound 0.0316 µM
[32] = second compound 10 µM, first compound 0.1 µM
[33] = second compound 10 µM, first compound 0.316 µM
[34] = second compound 10 µM, first compound 1 µM
[35] = second compound 10 µM, first compound 3.16 µM
[36] = second compound 10 µM, first compound 10 µM

For C=CCn1c(=O)c2cnc(Nc3ccc(N4CCN(C)CC4)cc3)nc2n1-c1cccc(C(C)(C)O)n1 + Cc1cnc(CNC(=O)c2c(=O)c3ccc(N4CCCN(C)CC4)nc3n3c2sc2ccccc23)cn1, the IC50 (second compound 0.0316 µM) was 45.1 nM, the IC50 (second compound 0.1 µM) was < 31.6 nM and the IC50 (second compound 0.316 µM) was < 31.6 nM. For the same compound, the IC50 (second compound 1 µM) was < 31.6 nM, the IC50 (second compound 3.16 µM) was < 31.6 nM and the IC50 (second compound 10 µM) was < 31.6 nM. For the same compound, the viability, T/C [1] was 59%, the viability, T/C [2] was 29.8% and the viability, T/C [3] was 5.19%. The viability, T/C [4] was 2.29%, the viability, T/C [5] was 2.42% and the viability, T/C [6] was 1.97%. For the same compound, the viability, T/C [7] was 23.5%, the viability, T/C [8] was 18% and the viability, T/C [9] was 4.3%. The viability, T/C [10] was 2.46%, the viability, T/C [11] was 2.38% and the viability, T/C [12] was 2.57%. For the same compound, the viability, T/C [13] was 16.9%, the viability, T/C [14] was 9.27% and the viability, T/C [15] was 4.48%. It also gave a viability, T/C [16] of 2.42%, a viability, T/C [17] of 2.95% and a viability, T/C [18] of 2.48%. It also gave a viability, T/C [19] of 9.95%, a viability, T/C [20] of 9.65% and a viability, T/C [21] of 3.88%. For the same compound, the viability, T/C [22] was 3.14%, the viability, T/C [23] was 3.18% and the viability, T/C [24] was 3.24%. It also gave a viability, T/C [25] of 11.6%, a viability, T/C [26] of 7.96% and a viability, T/C [27] of 4.12%. For the same compound, the viability, T/C [28] was 3.52%, the viability, T/C [29] was 3.96% and the viability, T/C [30] was 3.47%. For the same compound, the viability, T/C [31] was 7.24%, the viability, T/C [32] was 6.29% and the viability, T/C [33] was 4.68%. It also gave a viability, T/C [34] of 3.1%, a viability, T/C [35] of 4.62% and a viability, T/C [36] of 2.93%.

For CC(=O)O[C@H]1C(=O)[C@@]2(C)[C@H]([C@H](OC(=O)c3ccccc3)[C@]3(O)C[C@H](OC(=O)[C@H](O)[C@@H](NC(=O)c4ccccc4)c4ccccc4)C(C)=C1C3(C)C)[C@]1(OC(C)=O)CO[C@@H]1C[C@@H]2O + Cc1cnc(CNC(=O)c2c(=O)c3ccc(N4CCCN(C)CC4)nc3n3c2sc2ccccc23)cn1, the IC50 (second compound 0.0316 µM) was < 31.6 nM, the IC50 (second compound 0.1 µM) was < 31.6 nM and the IC50 (second compound 0.316 µM) was < 31.6 nM. The IC50 (second compound 1 µM) was < 31.6 nM, the IC50 (second compound 3.16 µM) was < 31.6 nM and the IC50 (second compound 10 µM) was < 31.6 nM. It also gave a viability, T/C [1] of 6.85%, a viability, T/C [2] of 7.2% and a viability, T/C [3] of 5.93%. It also gave a viability, T/C [4] of 4.84%, a viability, T/C [5] of 5.81% and a viability, T/C [6] of 5%. The viability, T/C [7] was 8.41%, the viability, T/C [8] was 6.77% and the viability, T/C [9] was 4.59%. For the same compound, the viability, T/C [10] was 5.47%, the viability, T/C [11] was 5.23% and the viability, T/C [12] was 5.1%. The viability, T/C [13] was 7.94%, the viability, T/C [14] was 7.36% and the viability, T/C [15] was 5.21%. The viability, T/C [16] was 5.4%, the viability, T/C [17] was 5.37% and the viability, T/C [18] was 5.62%. The viability, T/C [19] was 8.3%, the viability, T/C [20] was 8.57% and the viability, T/C [21] was 6.36%. It also gave a viability, T/C [22] of 6.43%, a viability, T/C [23] of 6.28% and a viability, T/C [24] of 5.79%. For the same compound, the viability, T/C [25] was 7.17%, the viability, T/C [26] was 6.44% and the viability, T/C [27] was 7.03%. It also gave a viability, T/C [28] of 6.22%, a viability, T/C [29] of 6.75% and a viability, T/C [30] of 5.4%. It also gave a viability, T/C [31] of 5.82%, a viability, T/C [32] of 6.66% and a viability, T/C [33] of 6.12%. The viability, T/C [34] was 6.29%, the viability, T/C [35] was 6.72% and the viability, T/C [36] was 6.2%.

With COc1ncnc(C2CC2)c1-c1ncc2cnn(Cc3ccc(-c4nc(C(F)(F)F)cn4C(C)C)cc3)c2n1 + Cc1cnc(CNC(=O)c2c(=O)c3ccc(N4CCCN(C)CC4)nc3n3c2sc2ccccc23)cn1 the IC50 (second compound 0.0316 µM) was 2110 nM, the IC50 (second compound 0.1 µM) was < 31.6 nM and the IC50 (second compound 0.316 µM) was < 31.6 nM. The IC50 (second compound 1 µM) was < 31.6 nM, the IC50 (second compound 3.16 µM) was < 31.6 nM and the IC50 (second compound 10 µM) was < 31.6 nM. It also gave a viability, T/C [1] of 53.6%, a viability, T/C [2] of 55.4% and a viability, T/C [3] of 53%. For the same compound, the viability, T/C [4] was 57.7%, the viability, T/C [5] was 42.7% and the viability, T/C [6] was 46.5%. It also gave a viability, T/C [7] of 37.1%, a viability, T/C [8] of 39.4% and a viability, T/C [9] of 33%. It also gave a viability, T/C [10] of 28.5%, a viability, T/C [11] of 35.5% and a viability, T/C [12] of 34.1%. For the same compound, the viability, T/C [13] was 20.6%, the viability, T/C [14] was 25.6% and the viability, T/C [15] was 26.9%. The viability, T/C [16] was 21.4%, the viability, T/C [17] was 21.7% and the viability, T/C [18] was 20.8%. For the same compound, the viability, T/C [19] was 15.2%, the viability, T/C [20] was 13.8% and the viability, T/C [21] was 11.1%. The viability, T/C [22] was 14.3%, the viability, T/C [23] was 15.8% and the viability, T/C [24] was 12.4%. The viability, T/C [25] was 10.6%, the viability, T/C [26] was 8.57% and the viability, T/C [27] was 9.08%. The viability, T/C [28] was 9.63%, the viability, T/C [29] was 9.64% and the viability, T/C [30] was 8.03%. The viability, T/C [31] was 9.86%, the viability, T/C [32] was 9.33% and the viability, T/C [33] was 8.36%. For the same compound, the viability, T/C [34] was 8.88%, the viability, T/C [35] was 10.2% and the viability, T/C [36] was 7.78%.
